Data published in paper PMC7070818 (Clinical and Translational Science, 2019).
Like-named read-outs stand apart in the source and are kept apart here. Blank lines part the entries; values can stand above or below the molecule they belong to.

What was measured:
[1] = fasted state; cited from earlier work
[2] = cited from earlier work
[3] = assay type: in vivo, human; conditions: for AUC(0-t): AUC0–23 hours; for AUC(0-inf): AUC0–∞; for Tmax: median (range)
[4] = tested on: Bruton's tyrosine kinase (BTK); conditions: cited from earlier work
[5] = male, human, plasma, oral, 140 mg, placebo phase, 140‐mg ibrutinib dose, geometric mean (geometric CV)
[6] = male, human, plasma, oral, itraconazole phase, dose‐adjusted to a 140‐mg dose, geometric mean (geometric CV)
[7] = male, human, plasma, oral, itraconazole phase, unadjusted, 15‐mg ibrutinib dose, geometric mean (geometric CV)
[8] = itraconazole phase (15 mg, unadjusted) vs placebo phase (140 mg)
[9] = itraconazole phase (dose‐adjusted to 140 mg) vs placebo phase
[10] = itraconazole phase vs placebo phase
[11] = itraconazole phase, dose‐adjusted to a 140‐mg dose, geometric mean (geometric CV)
[12] = itraconazole phase, unadjusted, 15‐mg ibrutinib dose, geometric mean (geometric CV)
[13] = placebo phase, 140‐mg ibrutinib dose, geometric mean (geometric CV)
[14] = unadjusted, 15 mg ibrutinib during itraconazole, 140 mg during placebo

Cmax ([3]; male, human, plasma, oral): 192 ng/mL
AUC(0-t) [3, 5]: 74.4 ng·h/mL
AUC(0-inf) [3, 5]: 76.5 ng·h/mL
AUC(0-t) [3, 6]: 755 ng·h/mL
AUC(0-t) [3, 7]: 80.9 ng·h/mL
AUC(0-inf) [3, 6]: 764 ng·h/mL
AUC(0-inf) [3, 7]: 81.9 ng·h/mL
Cmax ([3]; male, human, plasma, po): 20.6 ng/mL
Cmax ([3]; male, human, plasma, po, 140 mg): 22 ng/mL
SMILES: C=CC(=O)N1CCC[C@@H](n2nc(-c3ccc(Oc4ccccc4)cc3)c3c(N)ncnc32)C1 [Ibrutinib, ibrutinib, reference compound]
Mean oral bioavailability [1]: about 3%
Enhancement of bioavailability by food [2]: about twofold
Increase of AUC by ketoconazole ([2]; fasted state, healthy volunteers): 24 fold
Increase of AUC by grapefruit juice ([2]; fed conditions, healthy adults): 2.2 fold

AUC0–23 hours geometric mean ratio (90% CI) [3, 8]: 0.10 (0.08, 0.11)
AUC0–∞ geometric mean ratio (90% CI) [3, 8]: 0.10 (0.09, 0.12)
Cmax geometric mean ratio (90% CI) [3, 8]: 0.07 (0.06, 0.09)
AUC0–23 hours geometric mean ratio (90% CI) [3, 9]: 0.91 (0.78, 1.07)
AUC0–∞ geometric mean ratio (90% CI) [3, 9]: 0.97 (0.82, 1.16)
Cmax geometric mean ratio (90% CI) [3, 9]: 0.68 (0.59, 0.79)
t1/2 geometric mean ratio (90% CI) ([3]; itraconazole phase (dose‐adjusted) column vs placebo phase): 1.3 (1.10, 1.46)
t1/2 ([3]; itraconazole phase (dose‐adjusted) column, geometric mean (geometric CV)): 8.1 (0.28) hour
PCI‐45227/Ibrutinib AUC0‐∞ ratio, geometric mean ratio (90% CI) [3, 10]: 0.10 (0.08, 0.12)
t1/2 geometric mean ratio (90% CI) [3, 10]: 1.3 (1.10, 1.46)
AUC0–23 hours [3, 11]: 214.3 (0.36) ng·hour/mL
AUC0–∞ [3, 11]: 256.0 (0.42) ng·hour/mL
Cmax [3, 11]: 21.2 (0.28) ng/mL
AUC0–23 hours [3, 12]: 23.0 (0.36) ng·hour/mL
AUC0–∞ [3, 12]: 27.4 (0.42) ng·hour/mL
t1/2 ([3]; itraconazole phase, 15‐mg ibrutinib dose, geometric mean (geometric CV)): 8.1 (0.28) hour
Tmax ([3]; itraconazole phase, 15‐mg ibrutinib dose): 3 (1.5–4) hour
PCI‐45227/Ibrutinib AUC0‐∞ ratio ([3]; itraconazole phase, geometric mean (geometric CV)): 0.34 (0.28)
PCI‐45227/Ibrutinib AUC0–∞ ratio during itraconazole, relative to control ([3]; itraconazole vs placebo): 10 % of control
AUC0–23 hours [3, 13]: 235.2 (0.43) ng·hour/mL
AUC0–∞ [3, 13]: 262.8 (0.45) ng·hour/mL
t1/2 [3, 13]: 6.4 (0.27) hour
Tmax ([3]; placebo phase, 140‐mg ibrutinib dose): 3 (1.5–4) hour
PCI‐45227/Ibrutinib AUC0‐∞ ratio ([3]; placebo phase, geometric mean (geometric CV)): 3.4 (0.57)
AUC0‐∞ during itraconazole phase relative to placebo phase [3, 14]: 10%
Cmax during itraconazole phase relative to placebo phase [3, 14]: 7%
SMILES: Nc1ncnc2c1c(-c1ccc(Oc3ccccc3)cc1)nn2[C@@H]1CCCN(C(=O)C(O)CO)C1 (stereo partly shown) [PCI‐45227]
Inhibitory activity toward BTK relative to parent ibrutinib [4]: about 15 times lower
